In US11477982B2, “2-amino-5-oxyalkyl-pyrimidine derivatives and their use for controlling undesired plant growth” (Bayer CropScience Aktiengesellschaft, priority 2017, dated 2022):

Key:
Format in all cases: in vivo
[1] = test system: LOLRI: Lolium rigidum; assay: Post-emergence herbicidal effect
Method in brief: (§1)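 Weeds grown in sandy loam in a greenhouse and treated at the one-leaf stage, 2 to 3 weeks after sowing. Compounds formulated as WP or EC were sprayed with 0.5% additive at 600 l/ha water. Activity rated visually against untreated controls after about 3 weeks (100% = plants dead, 0% = like controls).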

[2] = test system: VIOTR: Viola tricolor; assay: Post-emergence herbicidal effect; conditions: dosage 320 g/ha
Method in brief: as §1

[3] = test system: ECHCG: Echinochloa crus-galli; assay: Post-emergence herbicidal effect
Method in brief: as §1

[4] = test system: AMARE: Amaranthus retroflexus; assay: Post-emergence herbicidal effect; conditions: dosage 320 g/ha
Method in brief: as §1

[5] = test system: STEME: Stellaria media; assay: Post-emergence herbicidal effect; conditions: dosage 320 g/ha
Method in brief: as §1

[6] = test system: VERPE: Veronica persica; assay: Post-emergence herbicidal effect; conditions: dosage 320 g/ha
Method in brief: as §1

[7] = test system: ABUTH: Abutilon theophrasti; assay: Post-emergence herbicidal effect
Method in brief: as §1

[8] = test system: SETVI: Setaria viridis; assay: Post-emergence herbicidal effect
Method in brief: as §1

[9] = test system: PHBPU: Ipomoea purpurea; assay: Post-emergence herbicidal effect
Method in brief: as §1

[10] = test system: POLCO: Polygonum convolvulus; assay: Post-emergence herbicidal effect
Method in brief: as §1

[11] = test system: MATIN: Matricaria inodora; assay: Post-emergence herbicidal effect; conditions: dosage 320 g/ha
Method in brief: as §1

[12] = test system: ALOMY: Alopecurus myosuroides; assay: Post-emergence herbicidal effect
Method in brief: as §1

[13] = test system: HORMU: Hordeum murinum; assay: Post-emergence herbicidal effect
Method in brief: as §1

[14] = test system: LOLRI: Lolium rigidum; assay: Pre-emergence herbicidal effect; conditions: dosage 320 g/ha
Method in brief: (§2)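 Seeds sown in pots and covered with soil; compounds formulated as WP or EC were sprayed onto the soil surface as aqueous suspension/emulsion with 0.5% additive at 600 l/ha water. Greenhouse growth for about 3 weeks, then visual scoring in % versus untreated controls (100% = plants died, 0% = like control).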

[15] = test system: VIOTR: Viola tricolor; assay: Pre-emergence herbicidal effect; conditions: dosage 320 g/ha
Method in brief: as §2

[16] = test system: ECHCG: Echinochloa crus-galli; assay: Pre-emergence herbicidal effect; conditions: pre-emergence; dosage 320 g/ha
Method in brief: as §2

[17] = test system: AMARE: Amaranthus retroflexus; assay: Pre-emergence herbicidal effect; conditions: pre-emergence; dosage 320 g/ha
Method in brief: as §2

[18] = test system: STEME: Stellaria media; assay: Pre-emergence herbicidal effect; conditions: pre-emergence; dosage 320 g/ha
Method in brief: as §2

[19] = test system: VERPE: Veronica persica; assay: Pre-emergence herbicidal effect; conditions: dosage 320 g/ha
Method in brief: as §2

[20] = test system: ABUTH: Abutilon theophrasti; assay: Pre-emergence herbicidal effect
Method in brief: as §2

[21] = test system: SETVI: Setaria viridis; assay: Pre-emergence herbicidal effect; conditions: pre-emergence; dosage 320 g/ha
Method in brief: as §2

[22] = test system: PHBPU: Ipomoea purpurea; assay: Pre-emergence herbicidal effect
Method in brief: as §2

[23] = test system: POLCO: Polygonum convolvulus; assay: Pre-emergence herbicidal effect; conditions: dosage 320 g/ha
Method in brief: as §2

[24] = test system: MATIN: Matricaria inodora; assay: Pre-emergence herbicidal effect; conditions: pre-emergence; dosage 320 g/ha
Method in brief: as §2

[25] = test system: ALOMY: Alopecurus myosuroides; assay: Pre-emergence herbicidal effect; conditions: pre-emergence; dosage 320 g/ha
Method in brief: as §2

[26] = test system: HORMU: Hordeum murinum; assay: Pre-emergence herbicidal effect; conditions: pre-emergence; dosage 320 g/ha
Method in brief: as §2

[27] = test system: AVEFA: Avena fatua; assay: Pre-emergence herbicidal effect
Method in brief: as §2

## Cc1ccc2c(c1)[C@H](Nc1ncc(C(C)O)c(C)n1)[C@@H](C)C2 (stereo partly drawn) [Example 1.7, 1-(2-{[(1R,2S)-2,6-Dimethyl-2,3-dihydro-1H-inden-1-yl]amino}-4-methylpyrimidin-5-yl)ethanol]
[1]; dosage 80 g/ha
  Herbicidal action against LOLRI: 100%
[1]; dosage 320 g/ha
  Herbicidal action against LOLRI: 100%
[2]
  Herbicidal action against VIOTR: 90%
[3]; dosage 80 g/ha
  Herbicidal action against ECHCG: 20%
[3]; dosage 320 g/ha
  Herbicidal action against ECHCG: 100%
[4]
  Herbicidal action against AMARE: 100%
[5]
  Herbicidal action against STEME: 100%
[6]
  Herbicidal action against VERPE: 90%
[7]; dosage 80 g/ha
  Herbicidal action against ABUTH: 60%
[7]; dosage 320 g/ha
  Herbicidal action against ABUTH: 80%
[8]; dosage 80 g/ha
  Herbicidal action against SETVI: 100%
[8]; dosage 320 g/ha
  Herbicidal action against SETVI: 100%
[9]; dosage 80 g/ha
  Herbicidal action against PHBPU: 60%
[9]; dosage 320 g/ha
  Herbicidal action against PHBPU: 100%
[10]; dosage 80 g/ha
  Herbicidal action against POLCO: 80%
[10]; dosage 320 g/ha
  Herbicidal action against POLCO: 80%
[11]
  Herbicidal action against MATIN: 90%
[12]; dosage 80 g/ha
  Herbicidal action against ALOMY: 80%
[12]; dosage 320 g/ha
  Herbicidal action against ALOMY: 100%
[13]; dosage 80 g/ha
  Herbicidal action against HORMU: 40%
[13]; dosage 320 g/ha
  Herbicidal action against HORMU: 100%
[14]
  Herbicidal action against LOLRI: 100%
[15]
  Herbicidal action against VIOTR: 100%
[16]
  Herbicidal action against ECHCG: 100%
[17]
  Herbicidal action against AMARE: 100%
[18]
  Herbicidal action against STEME: 100%
[19]
  Herbicidal action against VERPE: 100%
[20]; dosage 80 g/ha
  Herbicidal action against ABUTH: 90%
[20]; dosage 320 g/ha
  Herbicidal action against ABUTH: 100%
[21]
  Herbicidal action against SETVI: 100%
[22]; dosage 80 g/ha
  Herbicidal action against PHBPU: 80%
[22]; dosage 320 g/ha
  Herbicidal action against PHBPU: 80%
[23]
  Herbicidal action against POLCO: 100%
[24]
  Herbicidal action against MATIN: 100%
[25]
  Herbicidal action against ALOMY: 100%
[26]
  Herbicidal action against HORMU: 100%
[27]; dosage 80 g/ha
  Herbicidal action against AVEFA: 70%
[27]; dosage 320 g/ha
  Herbicidal action against AVEFA: 90%
